Measurements reported in the NIST ThermoML archive (doi:10.1016/j.jct.2016.10.042).
± gives the expanded uncertainty stated by the source.

Assay: xn = mol fraction of the nth substance listed
Details: 101 kPa, Liquid, Pycnometric method

C=CC(=O)OCCCC [butyl 2-propenoate] + C1CCOC1
mass density [kg/m3]
Details | 293.15 K | 298.15 K | 303.15 K | 308.15 K | 313.15 K | 318.15 K
x2 = 0 | 898.85 ± 1 | 894.1 ± 1 | 889.35 ± 1 | 884.6 ± 1 | 879.85 ± 1 | 875.1 ± 1
x2 = 0.0712 | 898.62 ± 1 | 893.89 ± 1 | 889.16 ± 1 | 884.42 ± 1 | 879.68 ± 1 | 874.94 ± 1
x2 = 0.1406 | 898.39 ± 1 | 893.66 ± 1 | 888.93 ± 1 | 884.19 ± 1 | 879.45 ± 1 | 874.71 ± 1
x2 = 0.208 | 898.1 ± 1 | 893.37 ± 1 | 888.64 ± 1 | 883.91 ± 1 | 879.17 ± 1 | 874.43 ± 1
x2 = 0.2779 | 897.74 ± 1 | 893.01 ± 1 | 888.27 ± 1 | 883.53 ± 1 | 878.79 ± 1 | 874.05 ± 1
x2 = 0.3685 | 897.14 ± 1 | 892.4 ± 1 | 887.66 ± 1 | 882.91 ± 1 | 878.16 ± 1 | 873.41 ± 1
x2 = 0.4339 | 896.6 ± 1 | 891.85 ± 1 | 887.1 ± 1 | 882.35 ± 1 | 877.59 ± 1 | 872.83 ± 1
x2 = 0.4996 | 895.97 ± 1 | 891.21 ± 1 | 886.45 ± 1 | 881.69 ± 1 | 876.92 ± 1 | 872.15 ± 1
x2 = 0.5642 | 895.25 ± 1 | 890.48 ± 1 | 885.71 ± 1 | 880.93 ± 1 | 876.15 ± 1 | 871.37 ± 1
x2 = 0.6426 | 894.22 ± 1 | 889.43 ± 1 | 884.64 ± 1 | 879.85 ± 1 | 875.05 ± 1 | 870.25 ± 1
x2 = 0.7208 | 893.03 ± 1 | 888.22 ± 1 | 883.41 ± 1 | 878.59 ± 1 | 873.77 ± 1 | 868.95 ± 1
x2 = 0.7956 | 891.72 ± 1 | 886.88 ± 1 | 882.04 ± 1 | 877.2 ± 1 | 872.36 ± 1 | 867.51 ± 1
x2 = 0.8642 | 890.32 ± 1 | 885.45 ± 1 | 880.58 ± 1 | 875.71 ± 1 | 870.84 ± 1 | 865.97 ± 1
x2 = 0.9322 | 888.76 ± 1 | 883.86 ± 1 | 878.96 ± 1 | 874.05 ± 1 | 869.14 ± 1 | 864.23 ± 1

C=CC(=O)OCC [ethyl propenoate] + C1CCOC1
mass density [kg/m3]
Details | 293.15 K | 298.15 K | 303.15 K | 308.15 K | 313.15 K | 318.15 K
x2 = 0 | 921.76 ± 1 | 915.95 ± 1 | 910.14 ± 1 | 904.33 ± 1 | 898.52 ± 1 | 892.71 ± 1
x2 = 0.0825 | 920.35 ± 1 | 914.64 ± 1 | 908.93 ± 1 | 903.22 ± 1 | 897.5 ± 1 | 891.78 ± 1
x2 = 0.167 | 918.74 ± 1 | 913.11 ± 1 | 907.48 ± 1 | 901.85 ± 1 | 896.22 ± 1 | 890.59 ± 1
x2 = 0.2302 | 917.35 ± 1 | 911.79 ± 1 | 906.23 ± 1 | 900.67 ± 1 | 895.1 ± 1 | 889.53 ± 1
x2 = 0.316 | 915.21 ± 1 | 909.73 ± 1 | 904.25 ± 1 | 898.77 ± 1 | 893.29 ± 1 | 887.81 ± 1
x2 = 0.3892 | 913.14 ± 1 | 907.73 ± 1 | 902.32 ± 1 | 896.91 ± 1 | 891.5 ± 1 | 886.09 ± 1
x2 = 0.4603 | 910.93 ± 1 | 905.58 ± 1 | 900.23 ± 1 | 894.88 ± 1 | 889.53 ± 1 | 884.18 ± 1
x2 = 0.5286 | 908.61 ± 1 | 903.32 ± 1 | 898.03 ± 1 | 892.74 ± 1 | 887.45 ± 1 | 882.16 ± 1
x2 = 0.5947 | 906.16 ± 1 | 900.93 ± 1 | 895.7 ± 1 | 890.47 ± 1 | 885.24 ± 1 | 880 ± 1
x2 = 0.6605 | 903.54 ± 1 | 898.36 ± 1 | 893.18 ± 1 | 888 ± 1 | 882.82 ± 1 | 877.64 ± 1
x2 = 0.7283 | 900.64 ± 1 | 895.52 ± 1 | 890.4 ± 1 | 885.28 ± 1 | 880.16 ± 1 | 875.04 ± 1
x2 = 0.7874 | 897.95 ± 1 | 892.88 ± 1 | 887.81 ± 1 | 882.74 ± 1 | 877.67 ± 1 | 872.6 ± 1
x2 = 0.8689 | 894 ± 1 | 888.98 ± 1 | 883.96 ± 1 | 878.94 ± 1 | 873.92 ± 1 | 868.9 ± 1
x2 = 0.936 | 890.52 ± 1 | 885.53 ± 1 | 880.54 ± 1 | 875.55 ± 1 | 870.56 ± 1 | 865.57 ± 1

C=CC(=O)OC [methyl propenoate] + C1CCOC1
mass density [kg/m3]
Details | 293.15 K | 298.15 K | 303.15 K | 308.15 K | 313.15 K | 318.15 K
x2 = 0 | 953.51 ± 1 | 947.56 ± 1 | 941.61 ± 1 | 935.66 ± 1 | 929.71 ± 1 | 923.76 ± 1
x2 = 0.0773 | 950.05 ± 1 | 944.24 ± 1 | 938.43 ± 1 | 932.62 ± 1 | 926.81 ± 1 | 921 ± 1
x2 = 0.1554 | 946.35 ± 1 | 940.67 ± 1 | 934.99 ± 1 | 929.31 ± 1 | 923.63 ± 1 | 917.95 ± 1
x2 = 0.2064 | 943.74 ± 1 | 938.15 ± 1 | 932.56 ± 1 | 926.97 ± 1 | 921.37 ± 1 | 915.77 ± 1
x2 = 0.2545 | 941.15 ± 1 | 935.63 ± 1 | 930.11 ± 1 | 924.58 ± 1 | 919.05 ± 1 | 913.52 ± 1
x2 = 0.3215 | 937.33 ± 1 | 931.89 ± 1 | 926.45 ± 1 | 921 ± 1 | 915.55 ± 1 | 910.1 ± 1
x2 = 0.3989 | 932.62 ± 1 | 927.26 ± 1 | 921.9 ± 1 | 916.54 ± 1 | 911.17 ± 1 | 905.8 ± 1
x2 = 0.4655 | 928.35 ± 1 | 923.06 ± 1 | 917.77 ± 1 | 912.47 ± 1 | 907.17 ± 1 | 901.87 ± 1
x2 = 0.53 | 924.03 ± 1 | 918.8 ± 1 | 913.57 ± 1 | 908.33 ± 1 | 903.09 ± 1 | 897.85 ± 1
x2 = 0.6023 | 918.98 ± 1 | 913.81 ± 1 | 908.64 ± 1 | 903.47 ± 1 | 898.3 ± 1 | 893.13 ± 1
x2 = 0.6834 | 913.02 ± 1 | 907.92 ± 1 | 902.82 ± 1 | 897.72 ± 1 | 892.62 ± 1 | 887.52 ± 1
x2 = 0.7632 | 906.87 ± 1 | 901.83 ± 1 | 896.79 ± 1 | 891.75 ± 1 | 886.7 ± 1 | 881.65 ± 1
x2 = 0.8468 | 900.16 ± 1 | 895.17 ± 1 | 890.18 ± 1 | 885.19 ± 1 | 880.19 ± 1 | 875.19 ± 1
x2 = 0.9316 | 893 ± 1 | 888.04 ± 1 | 883.08 ± 1 | 878.12 ± 1 | 873.16 ± 1 | 868.2 ± 1

C=CC(=O)OC(C)(C)C [tert-butyl acrylate] + C1CCOC1
mass density [kg/m3]
Details | 293.15 K | 298.15 K | 303.15 K | 308.15 K | 313.15 K | 318.15 K
x2 = 0 | 884.13 ± 1 | 879.66 ± 1 | 875.2 ± 1 | 870.74 ± 1 | 866.28 ± 1 | 861.82 ± 1
x2 = 0.0736 | 884.47 ± 1 | 880.01 ± 1 | 875.55 ± 1 | 871.08 ± 1 | 866.61 ± 1 | 862.14 ± 1
x2 = 0.1489 | 884.84 ± 1 | 880.36 ± 1 | 875.88 ± 1 | 871.4 ± 1 | 866.92 ± 1 | 862.44 ± 1
x2 = 0.2121 | 885.14 ± 1 | 880.65 ± 1 | 876.16 ± 1 | 871.67 ± 1 | 867.17 ± 1 | 862.67 ± 1
x2 = 0.2773 | 885.43 ± 1 | 880.92 ± 1 | 876.41 ± 1 | 871.9 ± 1 | 867.39 ± 1 | 862.88 ± 1
x2 = 0.362 | 885.78 ± 1 | 881.25 ± 1 | 876.71 ± 1 | 872.17 ± 1 | 867.63 ± 1 | 863.09 ± 1
x2 = 0.4382 | 886.06 ± 1 | 881.5 ± 1 | 876.94 ± 1 | 872.37 ± 1 | 867.8 ± 1 | 863.23 ± 1
x2 = 0.5024 | 886.28 ± 1 | 881.69 ± 1 | 877.1 ± 1 | 872.5 ± 1 | 867.9 ± 1 | 863.3 ± 1
x2 = 0.5815 | 886.5 ± 1 | 881.87 ± 1 | 877.24 ± 1 | 872.61 ± 1 | 867.98 ± 1 | 863.35 ± 1
x2 = 0.6532 | 886.66 ± 1 | 882 ± 1 | 877.34 ± 1 | 872.67 ± 1 | 868 ± 1 | 863.33 ± 1
x2 = 0.7268 | 886.79 ± 1 | 882.08 ± 1 | 877.37 ± 1 | 872.66 ± 1 | 867.95 ± 1 | 863.24 ± 1
x2 = 0.7921 | 886.88 ± 1 | 882.13 ± 1 | 877.38 ± 1 | 872.62 ± 1 | 867.86 ± 1 | 863.1 ± 1
x2 = 0.8698 | 886.97 ± 1 | 882.15 ± 1 | 877.33 ± 1 | 872.51 ± 1 | 867.69 ± 1 | 862.86 ± 1
x2 = 0.9352 | 887 ± 1 | 882.12 ± 1 | 877.24 ± 1 | 872.36 ± 1 | 867.48 ± 1 | 862.59 ± 1
